Reference: patent publication US10344264B2, “Culturing of human embryonic stem cells at the air-liquid interface for differentiation into pancreatic endocrine cells” (Janssen Biotech, Inc., priority 2012, dated 2019)
Like-named read-outs stand apart in the source and are kept apart here.

Experiments:
[1] = test system: cells of the human embryonic stem cell line H1; conditions: air-liquid interface; mRNA at Stage 6 day 5 and day 8
Experimental: Cells of the human embryonic stem cell line H1 (passage 42) were seeded as single cells at 1×10^5 cells/cm^2 on […] ™ (1:30 dilution; BD Biosciences, NJ)-coated dishes in a media comprising of DMEM-F12 (Invitrogen, Ca), GlutaMax™ (1:100 dilution, Invitrogen), 0.25 mM ascorbic acid (Sigma, MO), 100 ng/ml of FGF2 (R & D systems, MN), 1 ng/ml of TGF-β (R & D systems), ITS-X (1:100 dilution), 2% fatty-acid free BSA (Lampire, PA), and 20 ng/ml of IGF-1 (R & D systems), supplemented with 10 μM of Y27632 (Rock inhibitor, Catalog No. Y0503, Sigma). Forty-eight hours post-seeding, cultures were washed in incomplete PBS (phosphate buffered saline without Mg or Ca). The cells were then differentiated according to the following protocol: • a) Stage 1 (3 days): Cells were cultured for one day in MCDB-131 medium (Invitrogen Catalog No. 10372-019) supplemented with 2% fatty acid-free BSA (Proliant Catalog No. 68700), 0.0012 g/ml sodium bicarbonate (Sigma-Aldrich Catalog No. S3187); 1× GlutaMax™ (Invitrogen Catalog No. 35050-079); 4.5 mM D-glucose (Sigma-Aldrich Catalog No. G8769); 100 ng/ml GDF8 (R&D Systems); and 1 μM MCX compound. Cells were then cultured for an additional day in MCDB-131 medium supplemented with 2% fatty acid-free BSA, 0.0012 g/ml sodium bicarbonate, 1× GlutaMax™, 4.5 mM D-glucose, 100 ng/ml GDF8, and 0.1 μM MCX compound. […]

[2] = test system: cells of the human embryonic stem cell line H1
Description: At Stage 4 and subsequent cultures, mRNA was collected for PCR analysis of relevant pancreatic endoderm/endocrine genes. Total RNA was extracted with the RNeasy® Mini Kit (Qiagen; Valencia, Calif.) and reverse-transcribed using a High Capacity cDNA Reverse Transcription Kit (Applied Biosystems, Foster City, Calif.) according to manufacturers' instructions. cDNA was amplified using Taqman Universal Master Mix and Taqman Gene Expression Assays which were pre-loaded onto custom Taqman Arrays (Applied Biosystems).
Cells were then cultured for an additional day in MCDB-131 medium supplemented with 2% fatty acid-free BSA, 0.0012 g/ml sodium bicarbonate, 1× GlutaMax™, 4.5 mM D-Glucose, 100 ng/ml GDF8, and 0.1 μM MCX compound. […]

[3] = test system: cells of the human embryonic stem cell line H1; conditions: air-liquid interface, 1000 nM ALK5 inhibitor in Stages 5 and 6
Experimental: Cells of the human embryonic stem cell line H1 (passage 40) were seeded as single cells at 1×10^5 cells/cm^2 on […] ™ (1:30 dilution; BD Biosciences, NJ)-coated dishes in a media comprising DMEM-F12 (Invitrogen, Ca), GlutaMax™ (1:100 dilution, Invitrogen), 0.25 mM ascorbic acid (Sigma, MO), 100 ng/ml of FGF2 (R & D systems, MN), 1 ng/ml of TGF-β (R & D systems), ITS-X (1:100 dilution), 2% fatty-acid free BSA (Lampire, PA), and 20 ng/ml of IGF-1 (R & D systems), supplemented with 10 μM of Y27632 (Rock inhibitor, Catalog No. Y0503, Sigma-Aldrich). Forty-eight hours post-seeding, cultures were washed in incomplete PBS (phosphate buffered saline without Mg or Ca). The cells were then differentiated according to the following protocol: • a. Stage 1 (3 days): Cells were cultured for one day in MCDB-131 medium (Invitrogen Catalog No. 10372-019) supplemented with 2% fatty acid-free BSA (Proliant, Catalog No. 68700); 0.0012 g/ml sodium bicarbonate (Sigma-Aldrich, Catalog No. S3187); 1× GlutaMax™ (Invitrogen, Catalog No. 35050-079); 4.5 mM D-glucose (Sigma-Aldrich, Catalog No. G8769); 100 ng/ml GDF8 (R&D Systems); and 1 μM MCX compound. Cells were then cultured for an additional day in MCDB-131 medium supplemented with: 2% fatty acid-free BSA; 0.0012 g/ml sodium bicarbonate; 1× GlutaMax™; 4.5 mM D-Glucose; 100 ng/ml GDF8; and 0.1 μM MCX compound. […]

[4] = test system: cells of the human embryonic stem cell line H1; remark: listed apart in the source
Experimental: Cells of the human embryonic stem cell line H1 (passage 40) were seeded as single cells at 1×10^5 cells/cm^2 on […] ™ (1:30 dilution; BD Biosciences, NJ)-coated dishes or Matrigel-coated filter inserts (Millipore PIHT 30R 48) in a media comprising of DMEM-F12 (Invitrogen, Ca), Glutamax (1:100 dilution, Invitrogen), 0.25 mM ascorbic acid (Sigma, MO), 100 ng/ml of FGF2 (R & D systems, MN), 1 ng/ml of TGF-B (R & D systems), ITS-X (1:100 dilution), 2% fatty-acid free BSA (Lampire, PA), and 20 ng/ml of IGF-1 (R & D systems), supplemented with 10 μM of Y27632 (Rock inhibitor, Catalog No. Y0503, SigmaAldrich, St. Louis, Mo.). Forty-eight hours post seeding, cultures were washed in incomplete PBS (phosphate buffered saline without Mg or Ca). The cells were then differentiated according to the following protocol: • a) Stage 1 (3 days): Cells were cultured for one day in MCDB-131 medium (Invitrogen Catalog No. 10372-019) supplemented with 2% fatty acid-free BSA (Proliant Catalog No. 68700), 0.0012 g/ml sodium bicarbonate (SigmaAldrich Catalog No. S3187), 1× GlutaMax™ (Invitrogen Catalog No. 35050-079), 4.5 mM D-Glucose (SigmaAldrich Catalog No. G8769), 100 ng/ml GDF8 (R&D Systems) and 1 μM MCX compound. Cells were then cultured for an additional day in MCDB-131 medium supplemented with 2% fatty acid-free BSA, 0.0012 g/ml sodium bicarbonate, 1× GlutaMax™, 4.5 mM D-Glucose, 100 ng/ml GDF8, and 0.1 μM MCX compound. […]

[5] = test system: cells of the human embryonic stem cell line H1; test: Real-time PCR of Stage 6 cells at the air-liquid interface with gamma secretase inhibitor XX (Example 12); format: cell-based; conditions: 100 nM to 5000 nM at Stage 6; mRNA at Stage 6 day 4 and day 8
Experimental: This example highlights that NOTCH inhibitors, such as gamma secretase inhibitors, further enhance maturation markers of β cells while retaining expression of NKX6.1.
At Stage 6, various doses (100 nM to 5000 nM) of gamma Secretase inhibitor XX (EMD, #565789) were tested. mRNA was collected at Stage 6 day 4 and Stage 6 day 8. FIG. 21 depicts the PCR data for key β cell maturation markers along with pancreatic progenitor markers.

| SMILES | expression of MAFA on removal of the inhibitor at Stage 6 [1] | insulin expression at Stage 6 as compared to Stage 5 ([2]; cultures at the air-liquid interface) | insulin expression at Stage 6 as compared to Stage 5 ([2]; planar cultures treated at Stage 5 and Stage 6) | expression of glucagon [3] | expression of insulin [3] | co-expression of NKX6.1 and chromogranin-A (immunostaining) ([4]; Stage 6 cells at the air-liquid interface, 1 micro molar inhibitor) | number of NKX6.1 positive cells co-expressing insulin or chromogranin-A ([4]; filter inserts at the air-liquid interface) | number of NKX6.1 positive cells co-expressing insulin or chromogranin-A ([4]; same protocol on traditional monolayer cultures) | Amylin expression [5] | MAFA expression [5] | NKX6.1 expression [5] | PTF1a expression [5] | SOX9 expression [5] | insulin expression [5] |
| --- | --- | --- | --- | --- | --- | --- | --- | --- | --- | --- | --- | --- | --- | --- |
| Cc1cccc(-c2[nH]ncc2-c2ccc3ncccc3n2)n1 [ALK5 inhibitor II] | dramatic drop | enhancement | drop | significantly enhanced | significantly enhanced | co-expression of NKX6.1 and chromogranin-A | significantly enhanced | failed to show significant numbers |  |  |  |  |  |  |
| C[C@H](NC(=O)Cc1cc(F)cc(F)c1)C(=O)N[C@@H]1C(=O)N(C)c2ccccc2-c2ccccc21 [gamma Secretase inhibitor XX] |  |  |  |  |  |  |  |  | significantly upregulated | significantly upregulated | not significantly affected | significantly down regulated | significantly down regulated | significantly upregulated |
